For series [1], the system named is Drosophila melanogaster. Description: Fly Study I: protection from MTX-induced lethality. Type of series: in vivo. On the procedure:
In this study, Drosophila melanogaster eggs (50 eggs per vial) were treated with either 0.005 mg TK-112690+0.4 mg MTX (Group 1), 0.01 mg TK-112690+0.4 mg MTX (Group 2), 0.04 mg TK-112690+0.4 mg MTX (Group 3), 0.1 mg TK-112690+0.4 mg MTX (Group 4), 0.4 mg MTX alone (Group 5) or saline blank (Group 6). Two vials of eggs for each dose group were evaluated for viability (viable flies plus pupae).
The efficacy of cancer chemotherapy can be improved if agents are available to reduce the adverse events associated with treatment with cytotoxic agents. To this end, Drosophila melanogaster (commonly know as the fruit fly) is an ideal organism to screen chemical compounds for such side-effect-reducing agents. This study is aimed at finding a dose of a 2,2′-anhydropyrimidine test article that protects against MTX-induced lethality in insects.
Increasing amounts of a 2,2′-anhydropyrimidine test article (typically 0.03 to 0.1 mg) are mixed in an aqueous solution with 0.3 (or 0.4) mg MTX. Four milliliters (mL) of a 2,2′-anhydropyrimidine test article+MTX solutions are added to an appropriate amount of instant fly medium. Fruit fly eggs are added to a 2,2′-anhydropyrimidine test article+MTX treated medium and incubated for up to 31 days. After the 31 day incubation, each assay is scored by the number of mature fly and pupae per vial.
The assays are set up in clear sterile polystyrene narrow diameter vials from Applied Scientific (Hampton, N.H.). Vials are stored in trays and incubated in a darkened 25° C. incubator.
Reagents and materials used are: 50 mg/mL MTX in H2O (pH 8), 20 mg/mL of the 2,2′-anhydropyrimidine test article in H2O, water, sterile polystyrene narrow diameter vials from Applied Scientific, Instant Drosophila Food Medium, Oregon-R Drosophila melanogaster, 25° C. incubator, and 15 mL polystyrene conical tubes
Each assay is performed in a separate fly vial. […] Pre-measured amounts of instant drosophila medium are added to each assay to achieve optimal hydration level. […] Assays are scored by the number of dead pupae or adult flies per vial.

Series [2] has as its system C57Bl/6 female mice. Description: Mouse Study II: MTX-induced loss of mucosal permeability (plasma iodixanol). The note with it: day 7. The class given is in vivo. On the procedure:
C57Bl/6 female mice (n=7) were treated intraperitoneal (ip) with 100 mg/kg MTX on days 2, 3 and 4 with and without 60 mg/kg TK-112690 (ip) three hours before, and after, MTX injections. On day 7, mucosal barrier injury was estimated by measuring plasma concentrations of orally administered iodixanol determined by HPLC using UV detection (Boxplots with minimum and maximum values (black lines). Orally administered iodixanol is not absorbed absent an increase in mucosal permeability. Group 1=saline control, Group 2=MTX and Group 3=MTX+TK-112690.
The aim of this study was to evaluate the ability of a representative a 2,2′-anhydropyrimidine test article to mitigate MTX-induced loss of mucosal permeability. C57Bl/6 female mice (n=7) were treated (ip) with 100 mg/kg MTX on days 2, 3 and 4 with and without 60 mg/kg TK-112690 (ip) three hours before, and after, MTX injections. On day 7, mucosal barrier injury was estimated by measuring plasma concentrations of orally administered iodixanol determined by HPLC using UV detection. Orally administered iodixanol is not absorbed absent an increase in mucosal permeability.

Series [3] concerns CCRF-CEM human tumors. Description: Mouse Study IV: xenograft with CCRF-CEM implants. The class given is in vivo, SCID mice. On the procedure: In this study, n=10 SCID mice per dose group were treated with CCRF-CEM human tumors and the tumors allowed to grow to a size of approximately 100 mg. Then the animals were treated by intraperitoneal (ip) injection with either control 20% DMSO/80% PBS (1×/day)×5 days (Group 1), MTX 7.5 mg/kg/injection (1×/day)×5 days (Group 2) or MTX 7.5 mg/kg/inj. (1×/day)×5 days+TK-112690 30 mg/kg/inj.±3 hrs (group 3). The Figure provides tumor sizes in each of the 3 groups on Day 27 of the study.
A xenograft study was performed to analyze the effect of TK-112690. administration on the in vivo efficacy of MTX against a human cancer. Human CCRF-CEM (T-ALL) cells were implanted subcutaneously into SCID mice. Tumor volumes were recorded on a regular basis, and once tumors had become established, treatment was given. […] All treatments were given ip, and TK-112690 was give 3 hours prior to and 3 hours after MTX administration.

The test system of series [4] is Wild-type (Oregon-R) Drosophila melanogaster. Description: Fly Study II: MTX lethality in wild-type flies. The class given is in vivo. The note with it: for MTX dose with lethal effects in wild-type flies: orally in food admix, scored 15 days after initiation. On the procedure: Embryos of UPase knockout (19519) Drosophila melanogaster were orally exposed to a dose range of MTX doses in food admix. Embryos of Wild-type (Oregon-R) were orally exposed to the same dose range of MTX in presence and absence of 0.04 mg TK-112690. Scoring was based on life or death 15 days after initiation of MTX exposure. […] Wild-type D. melanogaster are sensitive to lethal effects of ≥0.1 mg MTX.
The aim of this study was to evaluate the lethal effects of a range (0.001, 0.01, 0.05, 0.1, 0.2, 0.4 mg) of doses of orally fed MTX in wild-type (Ore-R) and UPase mutant Drosophila melanogaster. Embryos of UPase knockout (19519) Drosophila melanogaster were orally exposed to a dose range of MTX (0.001, 0.01, 0.05, 0.1, 0.2, 0.4 mg) in food admix. Embryos of Wild-type (Oregon-R) were orally exposed to the same dose range of MTX in presence and absence of 0.04 mg TK-112690. Scoring was based on life or death 15 days after initiation of MTX exposure.

Turning to `Cc1cn2c(nc1=O)O[C@H]1[C@H](O)[C@@H](CO)O[C@H]12` [TK-112690, 2,2′-anhydro-5-methyluridine], the “protection against MTX-induced lethality in the Fly model” value in series [1] (with MTX 0.4 mg, TK-112690 0.005 to 0.1 mg) is given as “highly significant”. Also, in series [2] (60 mg/kg ip three hours before and after MTX 100 mg/kg, days 2, 3, 4), the “protection from MTX-induced mucosal barrier injury (plasma concentration of orally administered iodixanol)” value is “protected mice from MTX-induced mucosal barrier injury”. In series [3] (TK-112690 30 mg/kg ip 3 hours prior to and after MTX 7.5 mg/kg), the “tumor volume day 27, MTX+TK-112690 vs MTX” value is reported as “not significantly different”. Moreover, the “methotrexate dose from whose lethality protection is provided” value in series [4] (0.04 mg TK-112690) is on record as at most 0.4 mg. The “protection of wild-type flies from lethal effects of MTX” value in series [4] (0.04 mg TK-112690, MTX 0.001-0.4 mg) was “resistant to the lethal effects”.
With `CN(Cc1cnc2nc(N)nc(N)c2n1)c1ccc(C(=O)N[C@@H](CCC(=O)O)C(=O)O)cc1` [MTX, N-[4-[[(2,4-diamino-6-pteridinyl)methyl]methylamino]benzoyl]-L-glutamic acid, reference compound], the “effect of MTX on lethality in the flies” value in series [1] (0.4 mg MTX alone vs saline) is reported as “highly significant”. The “mucosal barrier injury (plasma concentration of orally administered iodixanol)” value in series [2] (100 mg/kg MTX ip on Days 2, 3 and 4) is recorded as “experienced mucosal barrier injury”. Moreover, the “tumor volume day 27, treatment vs saline” value in series [3] (MTX 7.5 mg/kg/injection ip (1×/day)×5 days) was “significantly different”. Moreover, the figures for the “MTX dose with lethal effects in wild-type flies” value in series [4] and in series [4] (listed as Methotrexate) were at least 0.1 mg and 0.1 mg, respectively.
